Experimental data from ChEMBL document CHEMBL1909046, “DrugMatrix in vitro pharmacology data”.

Columns and labels:
[1] = biological target: T1, Polyunsaturated fatty acid lipoxygenase ALOX15 (Oryctolagus cuniculus, UniProt P12530); assay: biochemical; assay type: tissue-based, Reticulocytes; conditions: reticulocytes;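 further: inhibition of 15-lipoxygenase enzyme activity measured with linoleic acid as the substrate; in other assays of this panel Not Active means under 50% inhibition at 10 µM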
T1 sequence (P12530 whole entry): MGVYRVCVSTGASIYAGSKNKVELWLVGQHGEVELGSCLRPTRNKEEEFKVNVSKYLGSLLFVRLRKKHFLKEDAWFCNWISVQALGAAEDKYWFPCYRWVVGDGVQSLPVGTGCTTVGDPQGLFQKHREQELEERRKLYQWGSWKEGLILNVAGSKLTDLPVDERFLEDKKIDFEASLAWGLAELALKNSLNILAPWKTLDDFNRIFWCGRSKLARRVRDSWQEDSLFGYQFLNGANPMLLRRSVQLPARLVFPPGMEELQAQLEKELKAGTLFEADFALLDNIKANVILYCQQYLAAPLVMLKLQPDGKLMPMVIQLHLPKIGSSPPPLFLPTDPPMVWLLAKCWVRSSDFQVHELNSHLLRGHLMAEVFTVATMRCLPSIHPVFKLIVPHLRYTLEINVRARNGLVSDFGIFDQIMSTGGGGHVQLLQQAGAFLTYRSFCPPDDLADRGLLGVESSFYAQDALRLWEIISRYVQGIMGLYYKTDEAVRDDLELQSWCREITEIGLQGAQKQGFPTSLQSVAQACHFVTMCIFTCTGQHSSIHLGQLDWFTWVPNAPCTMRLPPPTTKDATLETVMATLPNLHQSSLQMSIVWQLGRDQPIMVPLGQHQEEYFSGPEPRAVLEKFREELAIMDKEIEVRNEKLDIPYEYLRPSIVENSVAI

[2] = DRUGMATRIX: Sigma2 radioligand binding (ligand: [3H] Ifenprodil); assay type: cell membranes, Rattus norvegicus, Wistar, Brain, Membrane; conditions: Not Active = under 50% inhibition at 10 µM
[3] = DRUGMATRIX: Imidazoline I2, Central radioligand binding (ligand: [3H] Idazoxan); assay type: cell membranes, Rattus norvegicus, Wistar, Cerebral cortex, Membrane; conditions: Not Active = under 50% inhibition at 10 µM
[4] = DRUGMATRIX: Glutamate, NMDA, Phencyclidine radioligand binding (ligand: [3H] TCP); assay type: cell membranes, Rattus norvegicus, Wistar, Cerebral cortex, Membrane; conditions: Not Active = under 50% inhibition at 10 µM
[5] = DRUGMATRIX: Platelet-Derived Growth Factor (PDGF) radioligand binding (ligand: [125I] PDGF); assay type: cell-based; conditions: nih3t3; Not Active = under 50% inhibition at 10 µM
Carbonic anhydrase 2 = Carbonic anhydrase 2 (Homo sapiens, UniProt P00918); assay: DRUGMATRIX: Carbonic Anhydrase II enzyme inhibition (substrate: 4-Nitrophenyl acetate (4-NPA)); assay type: tissue-based, Erythrocyte; conditions: erythrocyte; Not Active = under 50% inhibition at 10 µM

Cc1ccc(Cl)c(Nc2ccccc2C(=O)O)c1Cl [MECLOFENAMIC ACID]
Not Active: IC50 [1] | IC50 [2] | Ki [2] | IC50 [3] | Ki [3] | IC50 [4] | Ki [4] | IC50 [5] | Ki [5] | IC50 (Carbonic anhydrase 2)

CO[C@@H]1[C@@H](OC)[C@H](C)[C@@](O)(CC(=O)O)O[C@H]1[C@H](C)[C@H]1O[C@@]2(CC[C@@](C)([C@H]3CC[C@@](C)([C@@H]4O[C@@H]([C@H]5O[C@](C)(O)[C@H](C)C[C@@H]5C)C[C@@H]4O[C@@H]4C[C@H](OC)[C@@H](OC)[C@H](C)O4)O3)O2)C[C@H](O)[C@H]1C.N [MADURAMICIN]
Not Active: IC50 [1] | IC50 [2] | Ki [2] | IC50 [3] | Ki [3] | IC50 [4] | Ki [4] | IC50 [5] | Ki [5] | IC50 (Carbonic anhydrase 2)

CCC(C)(C)C(=O)O[C@H]1C[C@@H](C)C=C2C=C[C@H](C)[C@H](CC[C@@H]3C[C@@H](O)CC(=O)O3)[C@H]21 [SIMVASTATIN]
Not Active: IC50 [1] | IC50 [2] | Ki [2] | IC50 [3] | Ki [3] | IC50 [4] | Ki [4] | IC50 [5] | Ki [5] | IC50 (Carbonic anhydrase 2)

C#C[C@]1(O)CC[C@H]2[C@@H]3[C@H](C)CC4=C(CCC(=O)C4)[C@H]3CC[C@@]21C [TIBOLONE]
Not Active: IC50 [1] | IC50 [2] | Ki [2] | IC50 [3] | Ki [3] | IC50 [4] | Ki [4] | IC50 [5] | Ki [5] | IC50 (Carbonic anhydrase 2)

Cc1nnc(NS(=O)(=O)c2ccc(N)cc2)s1 [SULFAMETHIZOLE]
Not Active: IC50 [1] | IC50 [2] | Ki [2] | IC50 [3] | Ki [3] | IC50 [4] | Ki [4] | IC50 [5] | Ki [5] | IC50 (Carbonic anhydrase 2)

C[C@]12CCC(=O)C[C@@H]1CC[C@@H]1[C@@H]2CC[C@]2(C)[C@@H](O)CC[C@@H]12 [STANOLONE]
Not Active: IC50 [1] | IC50 [2] | Ki [2] | IC50 [3] | Ki [3] | IC50 [4] | Ki [4] | IC50 [5] | Ki [5] | IC50 (Carbonic anhydrase 2)

CO[C@@]12[C@H](COC(N)=O)C3=C(C(=O)C(C)=C(N)C3=O)N1C[C@@H]1N[C@@H]12 [MITOMYCIN]
Not Active: IC50 [1] | IC50 [2] | Ki [2] | IC50 [3] | Ki [3] | IC50 [4] | Ki [4] | IC50 [5] | Ki [5] | IC50 (Carbonic anhydrase 2)

Cc1[nH]c(=O)c(C#N)cc1-c1ccncc1 [MILRINONE]
Not Active: IC50 [1] | IC50 [2] | Ki [2] | IC50 [3] | Ki [3] | IC50 [4] | Ki [4] | IC50 [5] | Ki [5] | IC50 (Carbonic anhydrase 2)

CC(Cl)(Cl)Cl [TRICHLOROETHANE]
Not Active: IC50 [1] | IC50 [2] | Ki [2] | IC50 [3] | Ki [3] | IC50 [4] | Ki [4] | IC50 [5] | Ki [5] | IC50 (Carbonic anhydrase 2)

CC[C@H](C)C(=O)O[C@H]1CCC=C2C=C[C@H](C)[C@H](CC[C@@H]3C[C@@H](O)CC(=O)O3)[C@H]21 [MEVASTATIN]
Not Active: IC50 [1] | IC50 [2] | Ki [2] | IC50 [3] | Ki [3] | IC50 [4] | Ki [4] | IC50 [5] | Ki [5] | IC50 (Carbonic anhydrase 2)

CC(=O)O[C@]1(C(C)=O)CC[C@H]2[C@@H]3C[C@H](C)C4=CC(=O)CC[C@]4(C)[C@H]3CC[C@@]21C [MEDROXYPROGESTERONE ACETATE]
Not Active: IC50 [1] | IC50 [2] | Ki [2] | IC50 [3] | Ki [3] | IC50 [4] | Ki [4] | IC50 [5] | Ki [5] | IC50 (Carbonic anhydrase 2)

CC[C@@]1(O)C(=O)OCc2c1cc1n(c2=O)Cc2cc3c(CN(C)C)c(O)ccc3nc2-1 [TOPOTECAN]
Not Active: IC50 [1] | IC50 [2] | Ki [2] | IC50 [3] | Ki [3] | IC50 [4] | Ki [4] | IC50 [5] | Ki [5] | IC50 (Carbonic anhydrase 2)
